Measured values published in patent publication US7615651B2, “Diaryl, dipyridinyl and aryl-pyridinyl derivatives and uses thereof” (Pfizer Inc., priority 2006, dated 2009).
Where two headings read alike, the source gives them in different places.

Tests used:
Type in all cases: biochemical
opioid receptor mu = target: T1, opioid receptor mu (Homo sapiens, UniProt P35372); assay: GTPγ[35S] binding assay, antagonism of endorphin
T1 construct: expressed in transfected cells
Protocol: (§1) Membranes were prepared from cells as described (Bass et al, 1996). GTPγ[5S] binding assays were performed in a 96 well FlashPlate™ format in duplicate using […] GTPγ[^35S] and 5 μg membrane per well in assay buffer composed of 50 mM Tris HCl, pH 7.4, 5 mM MgCl2, 1 mM EDTA, 100 mM NaCl, 30 μM GDP, 0.1% bovine serum albumin and the following protease inhibitors: 100 μg/ml bacitracin, 100 μg/ml benzamidine, 5 μg/ml aprotinin, 5 μg/ml leupeptin. The assay mix was then incubated at 30° C. with increasing concentrations of antagonist (10^−10 M to 10^−5 M) for 10 minutes and challenged with the agonists BW-373U86 (1 nM), dynorphin-A (10 nM), […] (1 μM) for opioid receptors delta, kappa, and mu, respectively. The assays were performed at 30° C. for one hour. The FlashPlates were then centrifuged at 2000×g for 10 minutes. Stimulation of GTPγ[^35S] binding was then quantified using a Wallac Microbeta and Ki calculations were done using Prism™ by Graphpad.

opioid receptor kappa = target: T2, opioid receptor kappa (Homo sapiens, UniProt P41145); assay: GTPγ[35S] binding assay, antagonism of dynorphin-A
T2 construct: expressed in transfected cells
T2 sequence (P41145 whole entry): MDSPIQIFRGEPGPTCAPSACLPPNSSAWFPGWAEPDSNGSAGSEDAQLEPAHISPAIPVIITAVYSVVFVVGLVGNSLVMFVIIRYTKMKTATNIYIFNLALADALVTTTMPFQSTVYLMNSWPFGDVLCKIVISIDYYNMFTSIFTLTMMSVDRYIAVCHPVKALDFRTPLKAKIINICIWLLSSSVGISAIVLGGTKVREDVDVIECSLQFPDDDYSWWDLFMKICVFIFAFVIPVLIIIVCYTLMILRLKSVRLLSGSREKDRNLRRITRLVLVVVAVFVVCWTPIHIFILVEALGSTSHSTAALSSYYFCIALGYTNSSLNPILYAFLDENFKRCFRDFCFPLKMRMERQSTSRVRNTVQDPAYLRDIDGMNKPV
Protocol: as §1

opioid receptor delta = target: T3, opioid receptor delta (Homo sapiens, UniProt P41143); assay: GTPγ[35S] binding assay, antagonism of BW-373U86; conditions: read-out: Delta functional (GTPγ[35S] binding Ki)
T3 construct: expressed in transfected cells
T3 sequence (P41143 whole entry): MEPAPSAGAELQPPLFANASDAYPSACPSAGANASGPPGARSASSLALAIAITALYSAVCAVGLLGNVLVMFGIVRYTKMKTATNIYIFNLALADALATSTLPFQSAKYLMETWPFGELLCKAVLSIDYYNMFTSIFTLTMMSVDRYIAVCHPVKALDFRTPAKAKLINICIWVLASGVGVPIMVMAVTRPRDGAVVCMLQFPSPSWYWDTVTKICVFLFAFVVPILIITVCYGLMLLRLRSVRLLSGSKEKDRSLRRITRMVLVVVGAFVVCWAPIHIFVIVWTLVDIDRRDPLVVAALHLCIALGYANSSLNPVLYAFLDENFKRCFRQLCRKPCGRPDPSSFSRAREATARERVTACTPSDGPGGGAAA
Protocol: as §1

[1] = read-out: Mu functional (GTPγ[35S] binding Ki)
[2] = read-out: Kappa functional (GTPγ[35S] binding Ki)
[3] = average Ki, antagonism of endorphin (1 μM) stimulated GTPγ[35S] binding, mu opioid receptor membranes, read-out: Mu functional (GTPγ[35S] binding Ki)
[4] = average Ki, antagonism of dynorphin-A (10 nM) stimulated GTPγ[35S] binding, kappa opioid receptor membranes, read-out: Kappa functional (GTPγ[35S] binding Ki)
[5] = average Ki, antagonism of BW-373U86 (1 nM) stimulated GTPγ[35S] binding, delta opioid receptor membranes
[6] = read-out: Mu functional Ki (GTPγ[35S] binding)
[7] = read-out: Kappa functional Ki (GTPγ[35S] binding)
[8] = average Ki, antagonism of endorphin (1 μM) at mu opioid receptor membranes, read-out: Mu functional Ki (GTPγ[35S] binding)
[9] = average Ki, antagonism of dynorphin-A (10 nM) at kappa opioid receptor membranes, read-out: Kappa functional Ki (GTPγ[35S] binding)
[10] = average Ki, antagonism of endorphin (1 μM) at mu opioid receptor, read-out: Mu functional Ki (GTPγ[35S] binding)
[11] = average Ki, antagonism of dynorphin-A (10 nM) at kappa opioid receptor, read-out: Kappa functional Ki (GTPγ[35S] binding)

T1 sequence (P35372 whole entry): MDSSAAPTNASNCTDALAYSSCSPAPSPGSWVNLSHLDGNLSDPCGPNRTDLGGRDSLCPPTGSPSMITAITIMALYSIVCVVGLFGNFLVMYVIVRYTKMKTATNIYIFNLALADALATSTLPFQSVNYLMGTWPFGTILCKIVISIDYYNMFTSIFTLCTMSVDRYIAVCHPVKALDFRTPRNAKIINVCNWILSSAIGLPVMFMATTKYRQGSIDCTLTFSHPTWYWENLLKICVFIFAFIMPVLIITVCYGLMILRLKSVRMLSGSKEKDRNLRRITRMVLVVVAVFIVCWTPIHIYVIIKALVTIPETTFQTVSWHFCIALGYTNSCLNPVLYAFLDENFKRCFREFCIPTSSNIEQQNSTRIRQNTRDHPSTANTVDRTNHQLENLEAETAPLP

| Ki (opioid receptor mu; [1]) [nM] | Ki (opioid receptor kappa; [2]) [nM] | Ki (opioid receptor delta) [nM] | SMILES | also measured |
| --- | --- | --- | --- | --- |
| 3.44 | 12.9 | 2.79 | NC(=O)c1cccc(-c2ccc(CNCCC3CCOCC3)cc2Cl)c1 [4A-08] |  |
| 6.27 | 7.69 | 21.3 | NC(=O)c1cccc(-c2ccc(CNC3CCc4ccccc43)cc2Cl)c1 (stereo not shown) [4A-11] |  |
| 15 | 18.2 | 22.7 | NC(=O)c1cccc(-c2ccc(CNCC3CCCCO3)cc2Cl)c1 (stereo not shown) [4A-12] |  |
| 4.07 | 3.39 | 0.893 | Cc1cc(C(N)=O)ccc1-c1ccc(CNCCC2CCOCC2)cc1 [4B-05] |  |
| 2.73 | 6.19 | 1.82 | Cc1cc(C(N)=O)ccc1-c1ccc(CNCCc2ccccc2)cc1 [4B-09] |  |
| 0.94 | 1.58 | 0.602 | Cc1cc(C(N)=O)ccc1-c1ccc(CNCc2cccc(Cl)c2)cc1 [4B-10] |  |
| 48.4 | 26.8 | 16.9 | CC(C)CCNCc1ccc(-c2c(F)cc(C(N)=O)cc2F)cc1 [4B-12] |  |
| 207 | 33 | 159 | Cc1cc(C(N)=O)ccc1-c1ccc(CN2Cc3ccccc3C2)cc1 [4B-13] |  |
| 295 | 278 | 355 | CC(C)CCNCc1ccc(-c2ccc(C(N)=O)c(F)c2)cc1 [4B-15] |  |

Further lines, the molecule ahead of its results:

| SMILES | Ki (opioid receptor mu; [1]) [nM] | Ki (opioid receptor kappa; [2]) [nM] | Ki (opioid receptor delta) [nM] | also measured |
| --- | --- | --- | --- | --- |
| NC(=O)c1cc(-c2ccc(CNC3Cc4ccccc4C3)cc2)ccc1F [4A-03] | 25.2 | 60.2 | 51.9 |  |
| CC(C)CCNCc1ccc(-c2cc(F)cc(C(N)=O)c2)cc1 [4A-04] |  |  |  | Ki (opioid receptor mu; [3]): 92.1 nM; Ki (opioid receptor kappa; [4]): 60.1 nM; Ki (opioid receptor delta; [5]): 21.4 nM |
| CC(C)CCNCc1ccc(-c2cccc(C(N)=O)c2)c(Cl)c1 [4A-05] |  |  |  | Ki (opioid receptor mu; [3]): 0.95 nM; Ki (opioid receptor kappa; [4]): 9.84 nM |
| NC(=O)c1cccc(-c2ccc(CNCC3CCCOC3)cc2Cl)c1 (stereo not shown) [4A-06] | 12.5 | 14.7 | 23.6 |  |
| NC(=O)c1cccc(-c2ccc(CNC[C@@H]3CCCO3)cc2Cl)c1 [4A-07] | 9.03 | 14.7 | 24.3 |  |
| CC1(C)OCC(CNCc2ccc(-c3cccc(C(N)=O)c3)c(Cl)c2)O1 (stereo not shown) [4A-10] |  |  |  | Ki (opioid receptor mu; [3]): 8.49 nM; Ki (opioid receptor kappa; [4]): 31.3 nM; Ki (opioid receptor delta; [5]): 353 nM |
| NC(=O)c1cccc(-c2ccc(CNCCC3CCCCO3)cc2Cl)c1 (stereo not shown) [4A-13] | 1.16 | 11 | 3.27 |  |
| CC(C)CCNCc1ccc(-c2ccc(C(N)=O)cc2)cc1 [4B-01] | 175 | 88.6 | 14 |  |
| CC(C)CCNCc1ccc(-c2ccc(C(N)=O)cc2C(F)(F)F)cc1 [4B-02] | 57.2 | 29.7 | 15.4 |  |
| Cc1cc(C(N)=O)ccc1-c1ccc(CNCc2ccccc2)cc1 [4B-03] | 3.13 | 1.84 | 4 |  |
| Cc1cc(C(N)=O)ccc1-c1ccc(CNCCOC(C)C)cc1 [4B-06] | 10.3 | 8.53 | 6.42 |  |
| Cc1cc(C(N)=O)ccc1-c1ccc(CNCCC2CC2)cc1 [4B-11] | 8.38 | 5.7 | 7.05 |  |
| Cc1cc(C(N)=O)cc(C)c1-c1ccc(CNCCC(C)C)cc1 [4B-14] | 86.5 | 29.6 | 6.27 |  |
| COc1cc(C(N)=O)ccc1-c1ccc(CNCCC(C)C)cc1 [4B-46] |  |  |  | Ki (opioid receptor mu; [6]): 121 nM; Ki (opioid receptor kappa; [7]): 14.7 nM |
| CC(C)CCNCc1ccc(-c2cccc(-c3ncn[nH]3)c2)c(Cl)c1 [7A-04] |  |  |  | Ki (opioid receptor mu; [8]): 0.162 nM; Ki (opioid receptor kappa; [9]): 0.794 nM |
| Cc1cc(CNCCC(C)C)ccc1-c1cccc(-c2ncn[nH]2)c1 [7A-05] |  |  |  | Ki (opioid receptor mu; [8]): 0.505 nM; Ki (opioid receptor kappa; [9]): 2.12 nM |
| CC(C)CCNCc1cc(F)c(-c2cccc(-c3ncn[nH]3)c2)c(F)c1 [7A-06] |  |  |  | Ki (opioid receptor mu; [8]): 2.06 nM; Ki (opioid receptor kappa; [9]): 4.61 nM |
| CC(C)CCNCc1ccc(-c2cccc(NS(C)(=O)=O)c2)cc1 [8A-01] |  |  |  | Ki (opioid receptor mu; [10]): 14.6 nM; Ki (opioid receptor kappa; [11]): 45.9 nM |
| Cc1cc(NS(C)(=O)=O)ccc1-c1ccc(CNCCC(C)C)cc1 [8B-01] |  |  |  | Ki (opioid receptor mu; [10]): 715 nM; Ki (opioid receptor kappa; [11]): 1450 nM |
| CC(C)CC[NH2+]Cc1ccc(-c2cccc(C(N)=O)c2)c(F)c1 [E5-01, (3′-Carbamoyl-2-fluoro-biphenyl-4-ylmethyl)-(3-methyl-butyl)-ammonium chloride] |  |  |  | Ki (opioid receptor mu; [6]): 14 nM; Ki (opioid receptor kappa; [7]): 23 nM |
